Tested on: 857933-349-R-J2-PDC complex spheroid viability
Assay: Anticancer human tumor 857933-349-R-J2-PDC patient-derived colon adenocarcinoma cell line growth inhibition [POLQ]
Conditions: for IC50: curve of first compound; for viability, T/C: stronger effect = lower value
Method in brief: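 Growth inhibition in 3D: complex spheroids (tumor PDC, HUVEC, MSC) treated with POLQ inhibitor combinations; where Cmax unknown, highest tested concentration 10 microM, except SN-38 at 1 microM.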

[1] = second compound 0.0316 µM, first compound 0.0316 µM
[2] = second compound 0.0316 µM, first compound 0.1 µM
[3] = second compound 0.0316 µM, first compound 0.316 µM
[4] = second compound 0.0316 µM, first compound 1 µM
[5] = second compound 0.0316 µM, first compound 3.16 µM
[6] = second compound 0.0316 µM, first compound 10 µM
[7] = second compound 0.1 µM, first compound 0.0316 µM
[8] = second compound 0.1 µM, first compound 0.1 µM
[9] = second compound 0.1 µM, first compound 0.316 µM
[10] = second compound 0.1 µM, first compound 1 µM
[11] = second compound 0.1 µM, first compound 3.16 µM
[12] = second compound 0.1 µM, first compound 10 µM
[13] = second compound 0.316 µM, first compound 0.0316 µM
[14] = second compound 0.316 µM, first compound 0.1 µM
[15] = second compound 0.316 µM, first compound 0.316 µM
[16] = second compound 0.316 µM, first compound 1 µM
[17] = second compound 0.316 µM, first compound 3.16 µM
[18] = second compound 0.316 µM, first compound 10 µM
[19] = second compound 1 µM, first compound 0.0316 µM
[20] = second compound 1 µM, first compound 0.1 µM
[21] = second compound 1 µM, first compound 0.316 µM
[22] = second compound 1 µM, first compound 1 µM
[23] = second compound 1 µM, first compound 3.16 µM
[24] = second compound 1 µM, first compound 10 µM
[25] = second compound 3.16 µM, first compound 0.0316 µM
[26] = second compound 3.16 µM, first compound 0.1 µM
[27] = second compound 3.16 µM, first compound 0.316 µM
[28] = second compound 3.16 µM, first compound 1 µM
[29] = second compound 3.16 µM, first compound 3.16 µM
[30] = second compound 3.16 µM, first compound 10 µM
[31] = second compound 10 µM, first compound 0.0316 µM
[32] = second compound 10 µM, first compound 0.1 µM
[33] = second compound 10 µM, first compound 0.316 µM
[34] = second compound 10 µM, first compound 1 µM
[35] = second compound 10 µM, first compound 3.16 µM
[36] = second compound 10 µM, first compound 10 µM
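Also: spheroids exposed to compounds for seven days before readout.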

CCCS(=O)(=O)Nc1ccc(F)c(C(=O)c2c[nH]c3ncc(-c4ccc(Cl)cc4)cc23)c1F + Cc1cccc(N(C)C(=O)C2C(O)CCN2c2nc(C)cc(C(F)(F)F)c2C#N)c1
IC50 (second compound 0.0316 µM): 6.96 µM
IC50 (second compound 0.1 µM): 6.4 µM
IC50 (second compound 0.316 µM): 6.8 µM
IC50 (second compound 1 µM): 6.73 µM
IC50 (second compound 3.16 µM): 6.62 µM
IC50 (second compound 10 µM): 6.51 µM
viability, T/C [1]: 87.7%
viability, T/C [2]: 104%
viability, T/C [3]: 97%
viability, T/C [4]: 99.3%
viability, T/C [5]: 98.8%
viability, T/C [6]: 28.1%
viability, T/C [7]: 106%
viability, T/C [8]: 105%
viability, T/C [9]: 93.6%
viability, T/C [10]: 94.5%
viability, T/C [11]: 98.7%
viability, T/C [12]: 19.1%
viability, T/C [13]: 107%
viability, T/C [14]: 99.6%
viability, T/C [15]: 93.2%
viability, T/C [16]: 95.5%
viability, T/C [17]: 109%
viability, T/C [18]: 24.2%
viability, T/C [19]: 95.6%
viability, T/C [20]: 111%
viability, T/C [21]: 99.5%
viability, T/C [22]: 91.3%
viability, T/C [23]: 103%
viability, T/C [24]: 23.6%
viability, T/C [25]: 92.1%
viability, T/C [26]: 96%
viability, T/C [27]: 82.2%
viability, T/C [28]: 100%
viability, T/C [29]: 102%
viability, T/C [30]: 25.2%
viability, T/C [31]: 115%
viability, T/C [32]: 99%
viability, T/C [33]: 97%
viability, T/C [34]: 99.9%
viability, T/C [35]: 96.5%
viability, T/C [36]: 22.3%

O=C(Nc1ccc(O)c(NS(=O)(=O)c2ccc(F)cc2)c1)c1ccc(-c2ccccc2)cc1 + Nc1ccc(C#CCN(C(=O)Cc2ncc(C(F)(F)F)cc2C(F)(F)F)c2ccc(F)cc2)nn1
IC50 (second compound 0.0316 µM): > 10 µM
IC50 (second compound 0.1 µM): > 10 µM
IC50 (second compound 0.316 µM): > 10 µM
IC50 (second compound 1 µM): > 10 µM
IC50 (second compound 3.16 µM): > 10 µM
IC50 (second compound 10 µM): > 10 µM
viability, T/C [1]: 95.1%
viability, T/C [2]: 108%
viability, T/C [3]: 103%
viability, T/C [4]: 111%
viability, T/C [5]: 110%
viability, T/C [6]: 92%
viability, T/C [7]: 90.1%
viability, T/C [8]: 96.6%
viability, T/C [9]: 97%
viability, T/C [10]: 103%
viability, T/C [11]: 119%
viability, T/C [12]: 103%
viability, T/C [13]: 84.2%
viability, T/C [14]: 98.8%
viability, T/C [15]: 91.2%
viability, T/C [16]: 102%
viability, T/C [17]: 110%
viability, T/C [18]: 98.8%
viability, T/C [19]: 90.7%
viability, T/C [20]: 106%
viability, T/C [21]: 101%
viability, T/C [22]: 97.9%
viability, T/C [23]: 89.7%
viability, T/C [24]: 94.2%
viability, T/C [25]: 97%
viability, T/C [26]: 96.2%
viability, T/C [27]: 104%
viability, T/C [28]: 85.1%
viability, T/C [29]: 104%
viability, T/C [30]: 99.7%
viability, T/C [31]: 103%
viability, T/C [32]: 105%
viability, T/C [33]: 98.6%
viability, T/C [34]: 107%
viability, T/C [35]: 90.8%
viability, T/C [36]: 113%
